From ChEMBL document CHEMBL5390306, “Development of Conformationally Restricted Negamycin Derivatives for Potent Readthrough Activity” (ACS Med Chem Lett, 2023)
Calls of active or inactive are those of the source. No cut-off for these calls is given here.

Key:
Format in all cases: functional, cell-based
[1] = test system: Premature termination codon; test: Readthrough activity against UGA type PTC 5'-TTGAAAGAGCAATAAAATGGCTTCAAC-3' from DMD mdx mouse overexpressed in COS7 cells assessed as ratio of luciferase activity to beta-galactosidase activity incubated for 48 hrs by Dual luciferase reporter assay; conditions: dose 6.25-200 µM
[2] = test system: Premature termination codon; test: Readthrough activity against UGA type PTC 5'-TTGAAAGAGCAATAAAATGGCTTCAAC-3' from DMD mdx mouse overexpressed in COS7 cells assessed as ratio of luciferase activity to beta-galactosidase activity at 200 uM incubated for 48 hrs by Dual luciferase reporter assay
[3] = test system: Premature termination codon; test: Readthrough activity against UAG type PTC 5'-TTGAAAGAGCAATAAAATGGCTTCAAC-3' from DMD mdx mouse overexpressed in COS7 cells assessed as ratio of luciferase activity to beta-galactosidase activity at 200 uM incubated for 48 hrs by Dual luciferase reporter assay
[4] = test system: Premature termination codon; test: Readthrough activity against UAA type PTC 5'-TTGAAAGAGCAATAAAATGGCTTCAAC-3' from DMD mdx mouse overexpressed in COS7 cells assessed as ratio of luciferase activity to beta-galactosidase activity at 200 uM incubated for 48 hrs by Dual luciferase reporter assay
[5] = test system: Premature termination codon; test: Potency index, ratio of 2,6-diaminopurine to test compound for readthrough activity against UGA type PTC 5'-TTGAAAGAGCAATAAAATGGCTTCAAC-3' from DMD mdx mouse overexpressed in COS7 cells at 200 uM incubated for 48 hrs by Dual luciferase reporter assay
[6] = test system: Premature termination codon; test: Readthrough activity against UGA type PTC 5'-TTGAAAGAGCAATAAAATGGCTTCAAC-3' from DMD mdx mouse overexpressed in COS7 cells assessed as readthrough efficiency at 200 uM incubated for 48 hrs by Dual luciferase reporter assay relative to control
[7] = test system: Premature termination codon; test: Potency index, ratio of G418 to test compound for readthrough activity against UGA type PTC 5'-TTGAAAGAGCAATAAAATGGCTTCAAC-3' from DMD mdx mouse overexpressed in COS7 cells at 200 uM incubated for 48 hrs by Dual luciferase reporter assay
[8] = test system: Premature termination codon; test: Readthrough activity against UGA type PTC 5'-TTGAAAGAGCAATAAAATGGCTTCAAC-3' from DMD mdx mouse overexpressed in COS7 cells assessed as ratio of luciferase activity to beta-galactosidase activity at 6.25 to 200 uM incubated for 48 hrs by Dual luciferase reporter assay; conditions: dose 6.25-200 µM

SMILES	Ratio [2]	Ratio [3]	Ratio [4]	also measured
Nc1nc(N)c2nc[nH]c2n1	–	–	–	Activity [1]: Dose-Dependent Effect
CCCCCCC(=O)NC[C@H](N)C(=O)N[C@H](CC(=O)NN(C)CC(=O)O)[C@H]1C[C@H]1CN	1.38	–	–	–
CN(CC(=O)O)NC(=O)C[C@@H](NC(=O)[C@@H](N)CCCCCCCO)[C@H]1C[C@H]1CN	3.25	–	–	–
CN(CC(=O)O)NC(=O)C[C@@H](N)CCCN	2.69	1.95	1.22	–
CCCCCCCCC[C@H](N)C(=O)N[C@H](CC(=O)NN(C)CC(=O)O)[C@H]1C[C@H]1CN	23	11.4	1.81	fold change (FC) [5]: 2; Activity [6]: 2.88%; Activity [1]: Dose-Dependent Effect; fold change (FC) [7]: 2
CCCCCCCCC[C@H](N)C(=O)N[C@@H](CCCN)CC(=O)NN(C)CC(=O)O	19.5	–	–	–
CN(CC(=O)O)NC(=O)C[C@@H](N)[C@H]1C[C@H]1CN	8.36	6.24	1.3	Activity [1]: Dose-Dependent Effect
CN(CC(=O)O)NC(=O)C[C@H](N)C[C@@H](O)CN	1.55	0.91	1.31	–
CN[C@@H]1[C@@H](O)[C@@H](O[C@@H]2[C@@H](O)[C@H](O[C@H]3O[C@H]([C@@H](C)O)[C@@H](O)[C@H](O)[C@H]3N)[C@@H](N)C[C@H]2N)OC[C@]1(C)O	6.01	4.68	4.5	Activity [6]: 1.71%; Activity [1]: Dose-Dependent Effect
CCCCCC/C=C/C[C@H](N)C(=O)N[C@H](CC(=O)NN(C)CC(=O)O)[C@H]1C[C@H]1CN	16.9	–	–	–
CC(C)C[C@@H](N)C(=O)N[C@H](CC(=O)NN(C)CC(=O)O)[C@H]1C[C@H]1CN	1.01	–	–	–
CCCC(=O)NCCCC[C@H](N)C(=O)N[C@H](CC(=O)NN(C)CC(=O)O)[C@H]1C[C@H]1CN	2.05	–	–	–
O=C(O)c1cccc(-c2noc(-c3ccccc3F)n2)c1	–	–	–	Activity [8]: Active
COCCCCCCC[C@H](N)C(=O)N[C@H](CC(=O)NN(C)CC(=O)O)[C@H]1C[C@H]1CN	1.94	–	–	–
CC(C)C[C@H](N)C(=O)N[C@H](CC(=O)NN(C)CC(=O)O)[C@H]1C[C@H]1CN	3.08	–	–	–
